One assay has as its target T1, PYL10 (Arabidopsis thaliana, UniProt Q8H1R0).
T1 construct: 6X-His; made in house; host or cells: E. coli BL21[DE3]pLysS
T1 sequence (Q8H1R0 1-183): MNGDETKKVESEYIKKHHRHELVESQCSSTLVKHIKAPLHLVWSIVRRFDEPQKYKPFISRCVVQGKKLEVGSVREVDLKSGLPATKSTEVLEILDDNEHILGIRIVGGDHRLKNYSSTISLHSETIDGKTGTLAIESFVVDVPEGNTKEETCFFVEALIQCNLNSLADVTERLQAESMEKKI
T1 sequence (Q9CAJ0 23-511 partner): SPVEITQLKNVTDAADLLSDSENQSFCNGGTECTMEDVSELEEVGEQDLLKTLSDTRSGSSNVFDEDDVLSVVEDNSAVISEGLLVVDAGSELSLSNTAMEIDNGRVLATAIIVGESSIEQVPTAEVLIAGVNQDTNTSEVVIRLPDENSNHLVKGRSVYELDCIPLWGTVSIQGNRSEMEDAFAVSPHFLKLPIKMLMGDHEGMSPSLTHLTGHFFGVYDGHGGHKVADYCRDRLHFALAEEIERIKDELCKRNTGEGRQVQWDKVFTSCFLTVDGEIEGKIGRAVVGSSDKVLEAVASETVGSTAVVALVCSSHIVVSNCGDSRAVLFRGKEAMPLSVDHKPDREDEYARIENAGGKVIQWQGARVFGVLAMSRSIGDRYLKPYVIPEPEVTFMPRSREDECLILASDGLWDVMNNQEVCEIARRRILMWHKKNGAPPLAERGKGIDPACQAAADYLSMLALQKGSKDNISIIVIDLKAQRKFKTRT
Nature of the assay: receptor-mediated PP2C (HAB1) inhibition in vitro assay. It counts as biochemical. Particulars: Table VII; read-out: PP2C Dose Curves PYL10 (IC50). In short, it runs like this: (§1)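 Compounds, tested at 25 μM or 50 uM with ABA at 10 uM, were incubated with recombinant receptor and 50 nM GST-HAB1 (2:1 ratio) in MnCl2-containing Tris-OAc buffer, pH 7.9. Phosphatase activity was followed by 4-methylumbelliferyl-phosphate fluorescence.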
For orientation: IC50 means the concentration needed to halve the response being measured. With `Cc1ccccc1C1(C(=O)NS(=O)(=O)Cc2ccc(C#N)cc2)CC1` [Compound 44], the half-maximal inhibitory concentration (IC50) worked out at 79.1 µM.

In the case of `N#Cc1ccc(CS(=O)(=O)NC(=O)C2(c3ccc(F)cc3)CCC2)cc1` [Compound 32], the IC50 is above 50 µM.

Turning to `N#Cc1ccc(CS(=O)(=O)NC(=O)C2(c3ccccc3F)CCCC2)cc1` [Compound 25], the half-inhibitory concentration (IC50) is above 50 µM.

For the molecule `N#Cc1ccc(CS(=O)(=O)NC(=O)C2(c3ccc(F)cc3)CCCC2)cc1` [Compound 24], the IC50 was 14.8 µM.

Turning to `N#Cc1ccc(CS(=O)(=O)NC(=O)C2(c3ccc(F)cc3)CC2)cc1` [Compound 35], the IC50 is above 50 µM.

On to `CC(C)(C(=O)NS(=O)(=O)Cc1ccc(C#N)cc1)c1ccc(F)cc1` [Compound 13], for which the IC50 was above 50 µM.

Regarding `Cc1cccc(C2(C(=O)NS(=O)(=O)Cc3ccc(C#N)cc3)CCCC2)c1` [Compound 43], the IC50 was above 50 µM.

On to `CC(C)(C(=O)NS(=O)(=O)Cc1ccc(C#N)cc1)c1ccccc1` [Compound 23], for which the IC50 is above 50 µM.

For another assay, the target named is T2, PYL11 (Arabidopsis thaliana, UniProt Q9FJ50).
T2 construct: made in house; host or cells: E. coli BL21[DE3]pLysS
T2 sequence (Q9FJ50 1-161): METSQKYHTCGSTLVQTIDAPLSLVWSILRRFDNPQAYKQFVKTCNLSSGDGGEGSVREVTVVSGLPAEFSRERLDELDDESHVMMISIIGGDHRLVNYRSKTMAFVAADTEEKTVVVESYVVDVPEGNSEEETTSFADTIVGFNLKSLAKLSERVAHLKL
T2 sequence (Q9CAJ0 23-511 partner): T1 sequence (Q9CAJ0 23-511 partner)
The assay is described as above. It counts as biochemical. Particulars: Table VII; read-out: PP2C Dose Curves PYL11 (IC50). In short, it runs like this:
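His-tagged receptors (MBP fusion for PYL11) at 2:1 ratio to 50 nM GST-HAB1 in 100 mM Tris-OAc pH 7.9, 100 mM NaCl, 1 mM MnCl2; 4-methylumbelliferyl-phosphate fluorogenic substrate. Compounds at 50 uM (ABA 10 uM); IC50 from dose curves for selected compounds.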
On to `Cc1ccccc1C1(C(=O)NS(=O)(=O)Cc2ccc(C#N)cc2)CC1` [Compound 44], for which the IC50 was found to be 13.3 µM.

Consider `N#Cc1ccc(CS(=O)(=O)NC(=O)C2(c3ccc(F)cc3)CCC2)cc1` [Compound 32], for which the IC50 worked out at 2.25 µM.

Turning to `N#Cc1ccc(CS(=O)(=O)NC(=O)C2(c3ccccc3F)CCCC2)cc1` [Compound 25], the IC50 is 12.7 µM.

`N#Cc1ccc(CS(=O)(=O)NC(=O)C2(c3ccc(F)cc3)CCCC2)cc1` [Compound 24]: the IC50 came to 4.09 µM.

As for `N#Cc1ccc(CS(=O)(=O)NC(=O)C2(c3ccc(F)cc3)CC2)cc1` [Compound 35], the IC50 is 3.29 µM.

Regarding `CC(C)(C(=O)NS(=O)(=O)Cc1ccc(C#N)cc1)c1ccc(F)cc1` [Compound 13], the IC50 is 2.48 µM.

Turning to `Cc1cccc(C2(C(=O)NS(=O)(=O)Cc3ccc(C#N)cc3)CCCC2)c1` [Compound 43], the IC50 was above 50 µM.

`CC(C)(C(=O)NS(=O)(=O)Cc1ccc(C#N)cc1)c1ccccc1` [Compound 23]: the half-maximal inhibitory concentration (IC50) turned out to be 7.84 µM.

The target of another assay is T3, PYL2 (Arabidopsis thaliana, UniProt O80992).
T3 construct: 6X-His; made in house; host or cells: E. coli BL21[DE3]pLysS
T3 sequence (O80992 1-190): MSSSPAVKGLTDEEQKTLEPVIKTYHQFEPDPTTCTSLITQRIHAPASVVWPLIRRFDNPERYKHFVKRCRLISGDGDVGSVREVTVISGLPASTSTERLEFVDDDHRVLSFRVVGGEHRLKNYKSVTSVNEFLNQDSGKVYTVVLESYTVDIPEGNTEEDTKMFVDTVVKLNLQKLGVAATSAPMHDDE
T3 sequence (Q9CAJ0 23-511 partner): T1 sequence (Q9CAJ0 23-511 partner)
The assay is described as above. Format: biochemical. The settings on record: Table VII; read-out: PP2C Dose Curves PYL2 (IC50). In short, it runs like this: as §1
Consider `Cc1ccccc1C1(C(=O)NS(=O)(=O)Cc2ccc(C#N)cc2)CC1` [Compound 44], for which the IC50 was above 50 µM.

Take `CC(C)(C(=O)NS(=O)(=O)Cc1ccc(C#N)cc1)c1ccc(F)cc1` [Compound 13]: the 50% inhibitory concentration (IC50) is above 50 µM.

The target of a further assay is T4, PYL5 (Arabidopsis thaliana, UniProt Q9FLB1).
T4 construct: 6X-His; made in house; host or cells: E. coli BL21[DE3]pLysS
T4 sequence (Q9FLB1 1-203): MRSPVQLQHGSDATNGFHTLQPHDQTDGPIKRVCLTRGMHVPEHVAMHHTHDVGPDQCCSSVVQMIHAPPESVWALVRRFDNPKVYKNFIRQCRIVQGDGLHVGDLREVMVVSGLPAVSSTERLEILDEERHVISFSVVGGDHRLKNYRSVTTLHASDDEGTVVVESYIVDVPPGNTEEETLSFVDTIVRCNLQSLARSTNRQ
T4 sequence (Q9CAJ0 23-511 partner): T1 sequence (Q9CAJ0 23-511 partner)
The description is as above. The settings on record: Table VII; read-out: PP2C Dose Curves PYL5 (IC50). Format: biochemical. In short, it runs like this:
(§2)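 Fluorogenic readout: 4-methylumbelliferyl-phosphate hydrolysis by 50 nM GST-HAB1 plus 2:1 His-receptor; Tris-OAc pH 7.9, NaCl, 1 mM MnCl2, β-ME. Compounds at 25 μM or 50 uM single dose; IC50 from dose curves for selected compounds.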
For `Cc1ccccc1C1(C(=O)NS(=O)(=O)Cc2ccc(C#N)cc2)CC1` [Compound 44], the IC50 came out at 2.48 µM.

In the case of `N#Cc1ccc(CS(=O)(=O)NC(=O)C2(c3ccc(F)cc3)CCC2)cc1` [Compound 32], the IC50 is above 50 µM.

Take `N#Cc1ccc(CS(=O)(=O)NC(=O)C2(c3ccc(F)cc3)CCCC2)cc1` [Compound 24]: the IC50 is above 50 µM.

Take `N#Cc1ccc(CS(=O)(=O)NC(=O)C2(c3ccc(F)cc3)CC2)cc1` [Compound 35]: the half-maximal inhibitory concentration (IC50) is 3.91 µM.

For the molecule `CC(C)(C(=O)NS(=O)(=O)Cc1ccc(C#N)cc1)c1ccc(F)cc1` [Compound 13], the half-maximal inhibitory concentration (IC50) stood at 11.1 µM.

As to `CC(C)(C(=O)NS(=O)(=O)Cc1ccc(C#N)cc1)c1ccccc1` [Compound 23], the IC50 is 39.6 µM.

Staying with this assay, now noted: compound at 25 μM; control without agonist = 100%.
Regarding `Cc1ccccc1C1(C(=O)NS(=O)(=O)Cc2ccc(C#N)cc2)CC1` [Compound 44], the remaining activity at 25 µM was determined as 18%.

As to `N#Cc1ccc(CS(=O)(=O)NC(=O)C2(c3ccc(F)cc3)CCC2)cc1` [Compound 32], the remaining activity at 25 µM was 74%.

On to `N#Cc1ccc(CS(=O)(=O)NC(=O)C2(c3ccccc3F)CCCC2)cc1` [Compound 25], for which the remaining activity at 25 µM turned out to be 102%.

Consider `N#Cc1ccc(CS(=O)(=O)NC(=O)C2(c3ccc(F)cc3)CCCC2)cc1` [Compound 24], for which the remaining activity at 25 µM was 99%.

For the molecule `N#Cc1ccc(CS(=O)(=O)NC(=O)C2(c3ccc(F)cc3)CC2)cc1` [Compound 35], the remaining activity at 25 µM came to 20%.

Consider `CC(C)(C(=O)NS(=O)(=O)Cc1ccc(C#N)cc1)c1ccc(F)cc1` [Compound 13], for which the remaining activity at 25 µM stood at 37%.

`Cc1cccc(C2(C(=O)NS(=O)(=O)Cc3ccc(C#N)cc3)CCCC2)c1` [Compound 43]: the remaining activity at 25 µM is 95%.

The same assay, now with this note: compounds with cyclopropyl rings at alpha carbon.
Regarding `Cc1ccccc1C1(C(=O)NS(=O)(=O)Cc2ccc(C#N)cc2)CC1` [Compound 44], the “PYL5 agonist potency and selectivity” value was “potent and relatively selective PYL5 agonists”.

A further assay has as its target T5, PYL9 (Arabidopsis thaliana, UniProt Q84MC7).
T5 construct: 6X-His; made in house; host or cells: E. coli BL21[DE3]pLysS
T5 sequence (Q84MC7 1-187): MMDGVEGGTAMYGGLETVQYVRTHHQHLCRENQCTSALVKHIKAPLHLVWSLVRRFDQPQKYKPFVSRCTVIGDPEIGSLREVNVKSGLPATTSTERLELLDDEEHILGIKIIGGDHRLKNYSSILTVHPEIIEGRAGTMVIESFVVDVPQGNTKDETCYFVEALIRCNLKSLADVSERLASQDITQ
T5 sequence (Q9CAJ0 23-511 partner): T1 sequence (Q9CAJ0 23-511 partner)
The description is as above. Format: biochemical. The settings on record: Table VII; read-out: PP2C Dose Curves PYL9 (IC50). Put shortly:
as §2
Regarding `Cc1ccccc1C1(C(=O)NS(=O)(=O)Cc2ccc(C#N)cc2)CC1` [Compound 44], the IC50 came out at 21.1 µM.

Consider `N#Cc1ccc(CS(=O)(=O)NC(=O)C2(c3ccc(F)cc3)CCC2)cc1` [Compound 32], for which the IC50 amounted to 1.4 µM.

For `N#Cc1ccc(CS(=O)(=O)NC(=O)C2(c3ccccc3F)CCCC2)cc1` [Compound 25], the IC50 was 6.69 µM.

As to `N#Cc1ccc(CS(=O)(=O)NC(=O)C2(c3ccc(F)cc3)CCCC2)cc1` [Compound 24], the IC50 is 0.6 µM.

As for `N#Cc1ccc(CS(=O)(=O)NC(=O)C2(c3ccc(F)cc3)CC2)cc1` [Compound 35], the IC50 worked out at 27.2 µM.

As for `CC(C)(C(=O)NS(=O)(=O)Cc1ccc(C#N)cc1)c1ccc(F)cc1` [Compound 13], the IC50 stood at 1.62 µM.

Turning to `Cc1cccc(C2(C(=O)NS(=O)(=O)Cc3ccc(C#N)cc3)CCCC2)c1` [Compound 43], the IC50 amounted to 28.2 µM.

For the molecule `CC(C)(C(=O)NS(=O)(=O)Cc1ccc(C#N)cc1)c1ccccc1` [Compound 23], the IC50 is 1.88 µM.

The assay is the same for the next values; noted with them: compound at 25 μM; control without agonist = 100%.
For the molecule `Cc1ccccc1C1(C(=O)NS(=O)(=O)Cc2ccc(C#N)cc2)CC1` [Compound 44], the remaining activity at 25 µM was found to be 50%.

Consider `N#Cc1ccc(CS(=O)(=O)NC(=O)C2(c3ccc(F)cc3)CCC2)cc1` [Compound 32], for which the remaining activity at 25 µM was 12%.

Take `N#Cc1ccc(CS(=O)(=O)NC(=O)C2(c3ccccc3F)CCCC2)cc1` [Compound 25]: the remaining activity at 25 µM was determined as 21%.

With `N#Cc1ccc(CS(=O)(=O)NC(=O)C2(c3ccc(F)cc3)CCCC2)cc1` [Compound 24], the remaining activity at 25 µM came to 10%.

With `N#Cc1ccc(CS(=O)(=O)NC(=O)C2(c3ccc(F)cc3)CC2)cc1` [Compound 35], the remaining activity at 25 µM was 49%.

For the molecule `CC(C)(C(=O)NS(=O)(=O)Cc1ccc(C#N)cc1)c1ccc(F)cc1` [Compound 13], the remaining activity at 25 µM amounted to 17%.

Turning to `Cc1cccc(C2(C(=O)NS(=O)(=O)Cc3ccc(C#N)cc3)CCCC2)c1` [Compound 43], the remaining activity at 25 µM turned out to be 46%.

Staying with this assay, now noted: five- and six-membered rings at alpha carbon.
With `N#Cc1ccc(CS(=O)(=O)NC(=O)C2(c3ccc(F)cc3)CCCC2)cc1` [Compound 24], the “PYL9 agonist potency and selectivity” value was “potent and relatively selective PYL9 agonists”.
